Source: ChEMBL document CHEMBL3588836, “Development of Quinoline-2,4(1H,3H)-diones as Potent and Selective Ligands of the Cannabinoid Type 2 Receptor” (J Med Chem, 2015)
Calls of active or inactive are those of the source. No cut-off for these calls is given here.

Legend:
[1] = target: T1, Cannabinoid receptor 2 (Homo sapiens, UniProt P34972); test: Antagonist activity against CB2R (unknown origin) CHO cells stably expressing Galpha16 assessed as inhibition of CP55940-induced increase in intracellular calcium level pre-treated 10 mins before CP55940 stimulation by microplate reader based assay relative to […]; assay type: functional, cell-based
[2] = tested on: CHO; test: Selectivity index, ratio of IC50 for CB1R (unknown origin) CHO cells stably expressing Galpha16 to IC50 for CB2R (unknown origin) CHO cells stably expressing Galpha16; assay type: cell-based; details: Homo sapiens
[3] = target: T1, Cannabinoid receptor 2; test: Antagonist activity against CB2R (unknown origin) CHO cells stably expressing Galpha16 assessed as inhibition of CP55940-induced increase in intracellular calcium level pre-treated 10 mins before CP55940 stimulation by microplate reader based assay; assay type: functional, cell-based
[4] = target: T2, Cannabinoid receptor 1 (Homo sapiens, UniProt P21554); assay type: functional, cell-based, CHO
[5] = tested on: Mus musculus; test: Reduction in leukocyte infiltration in spinal cord of C57BL/6 mouse experimental autoimmune encephalomyelitis model of multiple sclerosis at 10 mg/kg, po administered once daily starting from day 3 after immunization until end of experiment and measured on day 21 after immunization by hematoxylin and eosin staining; assay type: functional, organism-based
[6] = tested on: CHO; test: Selectivity index, ratio of EC50 for CB1R (unknown origin) CHO cells stably expressing Galpha16 to EC50 for CB2R (unknown origin) CHO cells stably expressing Galpha16; assay type: cell-based; details: Homo sapiens
[7] = target: T2, Cannabinoid receptor 1; test: Agonist activity at CB1R (unknown origin) CHO cells stably expressing Galpha16 assessed as increase in intracellular calcium level by microplate reader based assay; assay type: functional, cell-based
[8] = tested on: Mus musculus; test: Reduction in experimental autoimmune encephalomyelitis clinical scores in C57BL/6 mouse experimental autoimmune encephalomyelitis model of multiple sclerosis at 10 mg/kg, po administered once daily starting from day 3 after immunization until end of experiment and measured on day 21 after immunization; assay type: functional, organism-based
[9] = target: T1, Cannabinoid receptor 2; test: Agonist activity at CB2R (unknown origin) CHO cells stably expressing Galpha16 assessed as increase in intracellular calcium level by microplate reader based assay; assay type: functional, cell-based
[10] = tested on: Mus musculus; test: Reduction in extensive demyelination in white matter of C57BL/6 mouse experimental autoimmune encephalomyelitis model of multiple sclerosis at 10 mg/kg, po administered once daily starting from day 3 after immunization until end of experiment and measured on day 21 after immunization by Luxol fast blue staining; assay type: functional, organism-based
[11] = target: T1, Cannabinoid receptor 2; test: Agonist activity at CB2R (unknown origin) CHO cells stably expressing Galpha16 assessed as increase in intracellular calcium level by microplate reader based assay relative to CP55940; assay type: functional, cell-based

T2 sequence (P21554 whole entry): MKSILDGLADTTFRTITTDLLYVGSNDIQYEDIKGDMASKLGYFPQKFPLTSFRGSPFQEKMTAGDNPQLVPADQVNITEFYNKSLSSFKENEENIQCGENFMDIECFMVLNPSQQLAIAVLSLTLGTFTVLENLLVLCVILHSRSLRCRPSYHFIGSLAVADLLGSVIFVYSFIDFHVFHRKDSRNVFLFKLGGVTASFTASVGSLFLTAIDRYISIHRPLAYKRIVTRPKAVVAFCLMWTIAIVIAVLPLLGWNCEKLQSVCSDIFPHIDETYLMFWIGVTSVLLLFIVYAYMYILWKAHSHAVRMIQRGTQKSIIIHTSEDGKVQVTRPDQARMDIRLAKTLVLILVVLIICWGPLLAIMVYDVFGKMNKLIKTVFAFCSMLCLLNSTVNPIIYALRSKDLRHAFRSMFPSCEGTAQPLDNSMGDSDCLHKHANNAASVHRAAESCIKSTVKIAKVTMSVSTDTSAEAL
T1 sequence (P34972 whole entry): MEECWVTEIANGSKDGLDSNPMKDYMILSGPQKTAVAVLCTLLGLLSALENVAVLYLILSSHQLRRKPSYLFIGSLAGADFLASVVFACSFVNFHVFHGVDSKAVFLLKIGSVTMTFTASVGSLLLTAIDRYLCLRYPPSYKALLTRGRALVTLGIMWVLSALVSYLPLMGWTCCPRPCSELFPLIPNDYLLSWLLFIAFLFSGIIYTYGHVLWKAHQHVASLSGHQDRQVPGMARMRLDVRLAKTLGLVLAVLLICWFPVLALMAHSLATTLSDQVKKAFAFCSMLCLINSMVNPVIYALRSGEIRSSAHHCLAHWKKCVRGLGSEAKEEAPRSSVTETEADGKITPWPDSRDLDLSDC

## CCCCN1C(=O)/C(=C/NC2CCCCC2)C(=O)c2cc(OC)ccc21
[1]
  Emax: 99.7%
[2]
  Ratio IC50: > 2.39
[3]
  IC50: 4190 nM
[4]
  IC50: > 10000 nM

## CCCCCN1C(=O)/C(=C/NC23CC4CC(CC(C4)C2)C3)C(=O)c2cc(Cl)ccc21
[1]
  Emax: 100%
[2]
  Ratio IC50: > 10.4
[3]
  IC50: 957 nM
[4]
  IC50: > 10000 nM

## CCCCN1C(=O)/C(=C/NC2CCCCC2)C(=O)c2cccc(C)c21
[5]
  inhibition: Active
[6]
  Ratio EC50: > 108
[7]
  EC50: > 10000 nM
[8]
  inhibition: Dose-dependent effect
[9]; read-out: EC50
  EC50: 92.7 nM
[10]
  inhibition: Active
[11]
  Emax: 116%

## CCCCCN1C(=O)/C(=C/NC2CCCCC2)C(=O)c2ccc(OC)cc21
[1]
  Emax: 97.4%
[2]
  Ratio IC50: > 51.5
[3]
  IC50: 194 nM
[4]
  IC50: > 10000 nM

## CCCCCN1C(=O)/C(=C/NC23CC4CC(CC(C4)C2)C3)C(=O)c2cc(OC)ccc21
[1]
  Emax: 106%
[2]
  Ratio IC50: > 122
[3]
  IC50: 81.7 nM
[4]
  IC50: > 10000 nM

## CCCCCN1C(=O)/C(=C/NC2CCCCC2)C(=O)c2cc(Cl)ccc21
[1]
  Emax: 102%
[2]
  Ratio IC50: > 6.62
[3]
  IC50: 1510 nM
[4]
  IC50: > 10000 nM

## CCCCCN1C(=O)/C(=C/NC2CCCCC2)C(=O)c2cc(Cl)cc(C)c21
[1]
  Emax: 95%
[2]
  Ratio IC50: > 6.76
[3]
  IC50: 1480 nM
[4]
  IC50: > 10000 nM

## CCCCCN1C(=O)/C(=C/NC2CCCCC2)C(=O)c2cc(C(F)(F)F)ccc21
[3]
  IC50: > 10000 nM
[4]
  IC50: > 10000 nM

## CCCCCCN1C(=O)/C(=C/NC2CCCCC2)C(=O)c2cc(OC)ccc21
[3]
  IC50: > 10000 nM
[4]
  IC50: > 10000 nM

## CCCCN1C(=O)/C(=C/NC23CC4CC(CC(C4)C2)C3)C(=O)c2cccc(C)c21
[6]
  Ratio EC50: > 31.5
[7]
  EC50: > 10000 nM
[9]; read-out: EC50
  EC50: 317 nM
[11]
  Emax: 137%

## CCCCCN1C(=O)/C(=C/NC2CCCCC2)C(=O)c2cc(OC)ccc21
[1]
  Emax: 98.3%
[2]
  Ratio IC50: > 6.06
[3]
  IC50: 1650 nM
[4]
  IC50: > 10000 nM

## CCCCN1C(=O)/C(=C/NC(C)(C)C)C(=O)c2cccc(C)c21
[6]
  Ratio EC50: > 500
[7]
  EC50: > 10000 nM
[9]; read-out: EC50
  EC50: 20 nM
[11]
  Emax: 135%

## CCCCN1C(=O)/C(=C/NCC2CCC2)C(=O)c2cccc(C)c21
[6]
  Ratio EC50: > 45.5
[7]
  EC50: > 10000 nM
[9]; read-out: EC50
  EC50: 220 nM
[11]
  Emax: 87.7%

## CCCCN1C(=O)/C(=C/NCC(C)C)C(=O)c2cccc(C)c21
[6]
  Ratio EC50: > 226
[7]
  EC50: > 10000 nM
[9]; read-out: EC50
  EC50: 44.3 nM
[9]; read-out: pEC50 (converted)
  EC50: 44 nM
[11]
  Emax: 99%

## CCCCCN1C(=O)/C(=C/NC2CCCCC2)C(=O)c2cc(C)ccc21
[3]
  IC50: > 10000 nM
[4]
  IC50: > 10000 nM

## CCCCCN1C(=O)/C(=C/NC2CCCCC2)C(=O)c2ccc(Cl)cc21
[3]
  IC50: > 10000 nM
[4]
  IC50: > 10000 nM

## CCCCN1C(=O)/C(=C/NC2CCCCC2)C(=O)c2c(C)cccc21
[6]
  Ratio EC50: > 29.3
[7]
  EC50: > 10000 nM
[9]; read-out: EC50
  EC50: 341 nM
[11]
  Emax: 104%

## CCCCN1C(=O)/C(=C/NC(CC)CC)C(=O)c2cccc(C)c21
[6]
  Ratio EC50: > 88.5
[7]
  EC50: > 10000 nM
[9]; read-out: EC50
  EC50: 113 nM
[9]; read-out: pEC50 (converted)
  EC50: 112 nM
[11]
  Emax: 137%

## CCCN1C(=O)/C(=C/NC(C)(C)C)C(=O)c2cccc(C)c21
[6]
  Ratio EC50: > 275
[7]
  EC50: > 10000 nM
[9]; read-out: EC50
  EC50: 36.3 nM
[11]
  Emax: 126%

## CCCCN1C(=O)/C(=C/NC2CCCCC2)C(=O)c2cccc(OC)c21
[6]
  Ratio EC50: > 7.04
[7]
  EC50: > 10000 nM
[9]; read-out: EC50
  EC50: 1420 nM
[11]
  Emax: 86.1%

## CCCCN1C(=O)/C(=C/NC(C)(C)CO)C(=O)c2cccc(C)c21
[6]
  Ratio EC50: 13.5
[7]
  EC50: 557 nM
[9]; read-out: EC50
  EC50: 41.3 nM
[9]; read-out: pEC50 (converted)
  EC50: 41 nM
[11]
  Emax: 127%

## Cc1c(C(=O)NN2CCCCC2)nn(-c2ccc(Cl)cc2Cl)c1-c1ccc(Cl)cc1
[1]
  Emax: 100%

## CCCCN1C(=O)/C(=C/NC2CCCCC2)C(=O)c2cccc(CC)c21
[6]
  Ratio EC50: > 12.5
[7]
  EC50: > 10000 nM
[9]; read-out: EC50
  EC50: 797 nM
[9]; read-out: pEC50 (converted)
  EC50: 800 nM
[11]
  Emax: 86.9%

## CCCCN1C(=O)/C(=C/Nc2ccccn2)C(=O)c2cccc(C)c21
[6]
  Ratio EC50: > 4.18
[7]
  EC50: > 10000 nM
[9]; read-out: EC50
  EC50: 2390 nM
[11]
  Emax: 47.2%

## CCCCCN1C(=O)/C(=C/NC2CCCCC2)C(=O)c2cc(OC)cc(C)c21
[1]
  Emax: 106%
[2]
  Ratio IC50: > 107
[3]
  IC50: 93.3 nM
[4]
  IC50: > 10000 nM

## CCCCCN1C(=O)/C(=C/NC2CCCCC2)C(=O)c2cc(OC)cc(OC)c21
[3]
  IC50: > 10000 nM
[4]
  IC50: > 10000 nM

## CCCCN1C(=O)/C(=C/NC2CCCC2)C(=O)c2cccc(C)c21
[6]
  Ratio EC50: > 172
[7]
  EC50: > 10000 nM
[9]; read-out: EC50
  EC50: 58 nM
[11]
  Emax: 129%

## CCCCCN1C(=O)/C(=C/NC2CCCCC2)C(=O)c2cc(C(C)(C)C)ccc21
[3]
  IC50: > 10000 nM
[4]
  IC50: > 10000 nM

## CCCCCN1C(=O)/C(=C/NC2CCCCC2)C(=O)c2cc(Br)ccc21
[1]
  Emax: 96.8%
[2]
  Ratio IC50: > 5.95
[3]
  IC50: 1680 nM
[4]
  IC50: > 10000 nM

## CCCCN1C(=O)/C(=C/NC(C)(C)CC)C(=O)c2cccc(C)c21
[6]
  Ratio EC50: 26.8
[7]
  EC50: 2020 nM
[9]; read-out: EC50
  EC50: 75.3 nM
[9]; read-out: pEC50 (converted)
  EC50: 75 nM
[11]
  Emax: 158%

## CCCCCN1C(=O)/C(=C/NC23CC4CC(CC(C4)C2)C3)C(=O)c2cc(OC)cc(C)c21
[1]
  Emax: 102%
[2]
  Ratio IC50: > 221
[3]
  IC50: 45.3 nM
[4]
  IC50: > 10000 nM

## CCCCN1C(=O)/C(=C/NN2CCCCC2)C(=O)c2cccc(C)c21
[6]
  Ratio EC50: > 10.1
[7]
  EC50: > 10000 nM
[9]; read-out: EC50
  EC50: 993 nM
[11]
  Emax: 58%

## C=CCCN1C(=O)/C(=C/NC(C)(C)C)C(=O)c2cccc(C)c21
[6]
  Ratio EC50: > 133
[7]
  EC50: > 10000 nM
[9]; read-out: EC50
  EC50: 75.3 nM
[11]
  Emax: 92.6%

## CCCN1C(=O)/C(=C/NC2CCCCC2)C(=O)c2cccc(C)c21
[6]
  Ratio EC50: > 20.1
[7]
  EC50: > 10000 nM
[9]; read-out: EC50
  EC50: 497 nM
[11]
  Emax: 68.2%

## CCCCCN1C(=O)/C(=C/NC2CCCCC2)C(=O)c2ccc(C)cc21
[1]
  Emax: 96.3%
[2]
  Ratio IC50: > 1110
[3]
  IC50: 9.03 nM
[4]
  IC50: > 10000 nM

## Cc1cccc2c1N(CC1CC1)C(=O)/C(=C/NC1CCCCC1)C2=O
[6]
  Ratio EC50: > 14.9
[7]
  EC50: > 10000 nM
[9]; read-out: EC50
  EC50: 670 nM
[11]
  Emax: 111%

## CCN1C(=O)/C(=C/NC2CCCCC2)C(=O)c2cccc(C)c21
[6]
  Ratio EC50: > 0.559
[7]
  EC50: > 10000 nM
[9]; read-out: EC50
  EC50: 17900 nM
[11]
  Emax: 95%

## CCCCOc1c(OC)ccc2cc(C(=O)NCCc3ccc(N)cc3)c(=O)[nH]c12
[1]
  Emax: 102%
[2]
  Ratio IC50: > 18.3
[4]
  IC50: > 10000 nM

## CCCCCN1C(=O)/C(=C/NC2CCCCC2)C(=O)c2cc(OC(F)(F)F)ccc21
[3]
  IC50: > 10000 nM
[4]
  IC50: > 10000 nM

## CCCCN/C=C1\C(=O)c2cccc(C)c2N(CCCC)C1=O
[6]
  Ratio EC50: > 110
[7]
  EC50: > 10000 nM
[9]; read-out: EC50
  EC50: 90.7 nM
[9]; read-out: pEC50 (converted)
  EC50: 91 nM
[11]
  Emax: 64.7%
